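Where inhibition never reached the appropriate level, the endpoint shown equals the highest concentration tested. Otherwise, values were interpolated linearly from a five-concentration, 48-hour dose response in 96-well plates. GI50 is the concentration that inhibits growth by half. TGI: concentration producing complete growth inhibition.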

Among the test systems are HCC-2998 colon; K-562 leukemia; OVCAR-8 ovarian; SF-268 CNS; SN12C renal; SR leukemia; SW-620 colon; UACC-257 melanoma; UACC-62 melanoma; UO-31 renal.
What all share (assay): NCI tumour cell line growth inhibition, 48 h

On to `COc1cccc(/C=N/NC(=O)c2ccccc2Nc2ccnc(C(F)(F)F)c2)c1O`, for which the GI50 was 0.29 µM with HCC-2998 colon; 0.369 µM with K-562 leukemia; 0.319 µM in the test on OVCAR-8 ovarian; 0.488 µM in the test with SF-268 CNS; 0.783 µM in the test with SN12C renal; 0.0477 µM in the test with SR leukemia. Moreover, the GI50 was 0.918 µM in the test on SW-620 colon, 0.346 µM in the test on UACC-257 melanoma, 0.378 µM in the test with UACC-62 melanoma and 0.303 µM in the test with UO-31 renal. The TGI is 33.5 µM in the test with HCC-2998 colon; 12.3 µM in the test with K-562 leukemia; above 38 µM in the test with OVCAR-8 ovarian; above 51.1 µM in the test with SF-268 CNS; above 73.7 µM in the test on SN12C renal; 0.417 µM in the test on SR leukemia. Besides, the TGI was above 70.1 µM in the test with SW-620 colon, 5.88 µM in the test with UACC-257 melanoma and 10.6 µM with UACC-62 melanoma.

Consider `Cc1c(C(=O)N/N=C/c2ccc(Cl)cc2)nnn1-c1ccnc2c(C(F)(F)F)cccc12`, for which the GI50 with HCC-2998 colon is 9.54 µM; with K-562 leukemia, 5.74 µM; in the test on OVCAR-8 ovarian, 2.25 µM; in the test with SF-268 CNS, 11.7 µM; in the test on SN12C renal, 3.51 µM; in the test on SR leukemia, 3.6 µM. For the same molecule, the GI50 was 5.09 µM in the test with SW-620 colon, 2.89 µM with UACC-257 melanoma, 10.6 µM in the test with UACC-62 melanoma and 13 µM in the test with UO-31 renal. In addition, the TGI in the test with HCC-2998 colon amounted to 53.1 µM; in the test with K-562 leukemia it was 42.2 µM; in the test on OVCAR-8 ovarian it was 4.71 µM; in the test on SF-268 CNS it was 28.2 µM; in the test with SN12C renal, 15.5 µM; with SR leukemia, 12.3 µM. Moreover, the TGI in the test with SW-620 colon is 47.6 µM; with UACC-257 melanoma, 6.91 µM; in the test on UACC-62 melanoma, 28.4 µM; in the test with UO-31 renal, 27.8 µM.

Consider `CCOC(=O)NC(=O)c1cn(C2OC(COC(=O)CCCCCCCCC(=O)OCC3OC(n4cc(C(=O)NC(=O)OCC)c(=O)[nH]c4=O)C(O)C3O)C(O)C2O)c(=O)[nH]c1=O` (centres undefined), for which the TGI in the test on HCC-2998 colon, with K-562 leukemia, in the test with OVCAR-8 ovarian, in the test on SF-268 CNS, in the test with SN12C renal and with SR leukemia was above 100 µM each time. In addition, the TGI with SW-620 colon, in the test on UACC-257 melanoma, in the test with UACC-62 melanoma and in the test with UO-31 renal was above 100 µM throughout.

Consider `Cc1nc2c(nc1Cl)nc(Oc1ccc(Cl)cc1)c1ccccc12`, for which the TGI in the test with HCC-2998 colon was above 100 µM; in the test on K-562 leukemia, above 100 µM; with OVCAR-8 ovarian, 68.2 µM; in the test with SF-268 CNS it was above 100 µM; in the test with SN12C renal it was above 100 µM; with SR leukemia it was above 100 µM. For the same molecule, the TGI is above 100 µM in the test with SW-620 colon, above 100 µM with UACC-257 melanoma, above 100 µM in the test on UACC-62 melanoma and 73.7 µM in the test with UO-31 renal.

`CCCCCCCCCCCC(=O)CC(=O)c1c(O)cccc1O`: the TGI is 82.9 µM with HCC-2998 colon; 76.4 µM with K-562 leukemia; 30.6 µM with OVCAR-8 ovarian; 33 µM with SF-268 CNS; 33.6 µM in the test on SN12C renal; 45.8 µM in the test on SR leukemia. Further, the TGI with SW-620 colon was 31 µM; in the test with UACC-257 melanoma, 34.5 µM; with UACC-62 melanoma, 90.1 µM; in the test with UO-31 renal, 29.3 µM.

For the molecule `COc1ccc(CNc2cc(OC)c(OC)c(OC)c2)cc1`, the TGI was 32.3 µM with HCC-2998 colon; above 44.4 µM in the test with K-562 leukemia; above 100 µM with OVCAR-8 ovarian; 28.6 µM with SF-268 CNS; above 100 µM in the test with SN12C renal; above 100 µM in the test with SR leukemia. The TGI with SW-620 colon is above 100 µM; in the test with UACC-257 melanoma, above 100 µM; in the test on UACC-62 melanoma, above 100 µM; with UO-31 renal, above 94.6 µM.

For `O=C(Nc1ccc(N2CCNCC2)cc1)c1[nH]ncc1Nc1cc(Oc2ccccc2)ncn1`, the GI50 was 1.95 µM with HCC-2998 colon; 2.22 µM in the test on K-562 leukemia; 2.91 µM in the test on OVCAR-8 ovarian; 3.57 µM in the test with SF-268 CNS; 3.19 µM in the test on SN12C renal; 0.299 µM in the test on SR leukemia. Besides, the GI50 with SW-620 colon is 0.514 µM; in the test on UACC-257 melanoma it was 2.86 µM; in the test with UACC-62 melanoma it was 2.15 µM; with UO-31 renal it was 1.7 µM. The TGI in the test with HCC-2998 colon is 4.2 µM; with K-562 leukemia, 10.9 µM; in the test with OVCAR-8 ovarian, 12.2 µM; in the test on SF-268 CNS it was 14.4 µM; in the test on SN12C renal, 9.31 µM; with SR leukemia it was 1.84 µM. In addition, the TGI with SW-620 colon is 1.94 µM; in the test with UACC-257 melanoma it was 8.69 µM; in the test with UACC-62 melanoma it was 4.96 µM; with UO-31 renal it was 3.36 µM.

In the case of `N#CSCC1CC(O)(c2ccccc2)C(c2ccccc2)C(c2ccc(Cl)cc2)O1` (centres undefined), the GI50 was 1.84 µM with HCC-2998 colon; 1.37 µM in the test on K-562 leukemia; 1.78 µM in the test with OVCAR-8 ovarian; 1.67 µM in the test on SF-268 CNS; 1.41 µM in the test with SN12C renal; 1.9 µM with SR leukemia. Besides, the GI50 in the test on SW-620 colon is 1.63 µM; in the test on UACC-257 melanoma it was 1.61 µM; with UACC-62 melanoma, 1.41 µM; in the test with UO-31 renal, 1.33 µM. The TGI with HCC-2998 colon turned out to be 3.35 µM; in the test with K-562 leukemia, 5.42 µM; in the test on OVCAR-8 ovarian it was 3.83 µM; in the test on SF-268 CNS it was 4.74 µM; with SN12C renal, 2.91 µM; with SR leukemia, 4.95 µM. In addition, the TGI with SW-620 colon was found to be 3.93 µM; in the test with UACC-257 melanoma it was 3.39 µM; in the test with UACC-62 melanoma, 2.81 µM; in the test on UO-31 renal, 2.68 µM.

As to `O=C(O)Cn1ccc(=O)c2ccc([N+](=O)[O-])cc21`, the TGI in the test with HCC-2998 colon, in the test on K-562 leukemia, with OVCAR-8 ovarian, in the test with SF-268 CNS, in the test with SN12C renal and with SR leukemia was above 100 µM each time. The TGI in the test on SW-620 colon, in the test on UACC-257 melanoma, with UACC-62 melanoma and in the test with UO-31 renal was above 100 µM throughout.

These data come from PubChem BioAssay (NCI).
